Values of other authors as cited in paper PMC5488394, “30 YEARS OF THE MINERALOCORTICOID RECEPTOR: Mineralocorticoid receptor antagonists: 60 years of research and development” (The Journal of Endocrinology, 2017).
Like-named read-outs stand apart in the source and are kept apart here.

Columns and labels:
[1] = cited from earlier work; for mean half-life of spironolactone metabolite: healthy volunteers; for peak absolute plasma concentration / peak relative plasma concentration: steady state after oral 100 mg spironolactone per day
S810L MR mutant = system: S810L MR mutant; parameters: method as in Geller et al. 2000, Amazit et al. 2015; settings: ref Geller et al. 2000, Amazit et al. 2015; cited from earlier work
[2] = parameters: method as in Liddle 1957; settings: patient with congestive heart failure and patient with Addison's disease; ref Liddle 1957; cited from earlier work
[3] = system: estrogen-primed immature rabbits; parameters: method as in Hertz & Tullner 1958; settings: Clauberg assay; ref Hertz & Tullner 1958; cited from earlier work
[4] = system: mineralocorticoid-dependent sodium retention; settings: cited from earlier work
MR = system: MR; parameters: method as in Losert et al. 1985; settings: ref Losert et al. 1985; cited from earlier work
[5] = system: Dahl salt-sensitive hypertensive rats; parameters: method as in Arai et al. 2015b; settings: ref Arai et al. 2015b, cited from earlier work; for cardiorenal protection: 100 mg/kg
[6] = radioactively labeled, rats; ref Kolkhof & Borden 2012; cited from earlier work
[7] = cited from earlier work
[8] = parameters: method as in Weinberger et al. 2002; settings: 100 mg OD or 50 mg BID, hypertensive patients; ref Weinberger et al. 2002; cited from earlier work
human MR = system: human MR; parameters: method as in Arai et al. 2015a; settings: ref Arai et al. 2015a; read-out: IC50, block of aldosterone-induced transcriptional activation of human MR; cited from earlier work
[9] = ref Pitt et al. 2003, cited from earlier work
human plasma proteins = settings: cited from earlier work
[10] = parameters: method as in de Gasparo et al. 1989; settings: fludrocortisone challenge, healthy volunteers; 50 mg vs 25 mg spironolactone; ref de Gasparo et al. 1989; cited from earlier work
[11] = system: MR over other steroid hormone receptors; parameters: method as in Arai et al. 2015a; settings: in vitro; ref Arai et al. 2015a; cited from earlier work
DOCA/salt-loading rats = settings: cited from earlier work
[12] = cited from earlier work; remark: listed apart in the source
aldosterone receptor = system: aldosterone receptor; parameters: method as in Claire et al. 1979; settings: ref Claire et al. 1979; cited from earlier work
[13] = parameters: method as in Kolkhof & Borden 2012; settings: mice; ref Kolkhof & Borden 2012; cited from earlier work
[14] = system: aldosterone-induced cardiac necrosis; parameters: method as in Selye 1960; settings: rats; ref Selye 1960; cited from earlier work
dogs and monkeys = settings: ref Lumb et al. 1978; cited from earlier work
[15] = parameters: method as in Pitt et al. 1999; settings: low dose on top of standard of care; ref Pitt et al. 1999; cited from earlier work
rats = settings: cited from earlier work
[16] = system: rat renal cytoplasmatic MR; parameters: method as in Casals-Stenzel et al. 1984; settings: ref Casals-Stenzel et al. 1984; cited from earlier work
rat androgen receptor = system: rat androgen receptor; parameters: method as in Laurent et al. 1983; settings: ref Laurent et al. 1983; cited from earlier work
urinary Na+/K+ ratio = system: urinary Na+/K+ ratio; parameters: method as in Casals-Stenzel et al. 1984; settings: rats, on average; ref Casals-Stenzel et al. 1984; cited from earlier work
progesterone receptor = system: progesterone receptor; parameters: method as in Laurent et al. 1983; settings: estrogen-primed rabbit uterus; ref Laurent et al. 1983; cited from earlier work
[17] = ref Karim 1978, Garthwaite & McMahon 2004
[18] = single oral dose 50 mg, healthy subjects, ref Thosar et al. 2003

CS[C@H]1[C@@H]2[C@H](CC[C@@]3(C)[C@H]2CC[C@@]32CCC(=O)O2)[C@@]2(C)CCC(=O)C=C2[C@@H]1O [HTMS, 6β-hydroxy-7α-thiomethyl-spironolactone]
mean half-life of spironolactone metabolite [1, 17]: 15.0 h | peak absolute plasma concentration ([1]; ref Gardiner et al. 1989): 125 ng/mL | peak relative plasma concentration ([1]; ref Gardiner et al. 1989): 16.1%

CC(=O)[C@H]1CC[C@H]2[C@@H]3CCC4=CC(=O)CC[C@]4(C)[C@H]3CC[C@]12C [Progesterone]
effect on S810L MR mutant (S810L MR mutant): paradoxically activate

C[C@]12CCC(=O)C=C1CC[C@@H]1[C@@H]2CC[C@@]2(C)[C@H]1CC[C@@]21CCC(=O)O1 [SC-5233, 3-(3-oxo-17β-hydroxy-4-androsten-17α-yl)propionic acid γ-lactone]
natriuretic activity in patients [2]: natriuretic activity | in vivo progestational activity [3]: substantial in vivo progestational activity | antagonistic efficacy in mineralocorticoid-dependent models ([4]; strictly dependent on presence of a mineralocorticoid, ref Kagawa et al. 1959): convincing antagonistic efficacy

C[C@]12CC[C@H]3[C@@H](CCC4=CC(=O)CC[C@@H]43)[C@@H]1CC[C@@]21CCC(=O)O1 [SC-8109]
in vivo progestational activity [3]: substantial in vivo progestational activity | potency on mineralocorticoid-dependent sodium retention relative to SC-5233 ([4]; adrenalectomized rats, ref Kagawa et al. 1957): more potent than SC-5233

CS[C@@H]1CC2=CC(=O)CC[C@]2(C)[C@H]2CC[C@@]3(C)[C@@H](CC[C@@]34CCC(=O)O4)[C@H]12 [TMS, 7α-thiomethyl-spironolactone]
mean half-life of spironolactone metabolite [1, 17]: 13.8 h | peak absolute plasma concentration ([1]; ref Gardiner et al. 1989): 391 ng/mL | peak relative plasma concentration ([1]; ref Gardiner et al. 1989): 50.3%

C[C@]12CCC(=O)C=C1C=C[C@@H]1[C@@H]2CC[C@@]2(C)[C@H]1CC[C@@]21CCC(=O)O1 [canrenone]
mean half-life of spironolactone metabolite [1, 17]: 16.5 h | canrenone proportion of metabolites after spironolactone ([1]; multiple doses, ref Gardiner et al. 1989): about 23% | canrenone proportion of metabolites after spironolactone ([1]; single dose, ref Merkus et al. 1983): about 15% | peak absolute plasma concentration ([1]; ref Gardiner et al. 1989): 181 ng/mL | peak relative plasma concentration ([1]; ref Gardiner et al. 1989): 23.3%

C[C@]12CCC(=O)C=C1[C@@H]1C[C@@H]1[C@H]1[C@@H]3[C@@H]4C[C@@H]4[C@@]4(CCC(=O)O4)[C@@]3(C)CC[C@@H]12 [drospirenone, 1,2-dihydro-spirorenone]
potency relative to spironolactone on the MR in rats (MR): eight times more potent

COC(=O)[C@@H]1CC2=CC(=O)CC[C@]2(C)[C@@]23O[C@@H]2C[C@@]2(C)[C@@H](CC[C@@]24CCC(=O)O4)[C@H]13 [eplerenone, 9-11α-epoxymexrenone]
effect on S810L MR mutant (S810L MR mutant): paradoxically activate | cardiorenal protection [5]: only partial cardiorenal protection | accumulation of drug equivalent concentration in kidneys compared with heart tissue [6]: ≥ 3 fold | active metabolites ([7]; ref Kolkhof & Borden 2012): no active metabolites | duration of natriuretic effect [7, 18]: ~ 10 h | half-life [7, 18]: 2.9 h | half-life ([7]; steady state after multiple doses of 100 mg, ref Cook et al. 2003): 4 h | efficacy compared to 50 mg spironolactone twice daily [8]: 50–75% | IC50 (human MR): 970 nM | incidence of serious hyperkalemia (≥6 mmol/L) vs placebo ([9]; P = 0.002): significantly higher | primary endpoint, death from any cause or hospitalization for CV events ([9]; vs placebo, mean follow-up 16 months): significantly reduced | bound fraction (plasma proteins) (human plasma proteins; ref Inspra Prescribing Information 2002): about 50% | natriuretic activity vs spironolactone [10]: rough equi-efficacy

Cc1c(C(=O)Nc2ccc(S(C)(=O)=O)cc2)cn(CCO)c1-c1ccccc1C(F)(F)F [esaxerenone, (5S)-1-(2-hydroxyethyl)-4-methyl-N-[4-(methylsulfonyl)phenyl]-5-[2-(trifluoromethyl)phenyl]-1H-pyrrole-3-carboxamide]
selectivity for MR over other steroid hormone receptors [11]: ≥ 1000 fold | antihypertensive effect ([5]; chronic treatment, 0.5 mg/kg equivalent to spironolactone or eplerenone 100 mg/kg): dose-dependent antihypertensive effect | reduction of proteinuria and renal hypertrophy, potency vs spironolactone and eplerenone [5]: superior potency | IC50 (human MR): 3.7 nM | antihypertensive activity vs spironolactone or eplerenone (DOCA/salt-loading rats; DOCA/salt-loading rats, ref Arai et al. 2015a): more pronounced antihypertensive activity | effect on hypertension and renal injury in DOCA rats (DOCA/salt-loading rats; ref Arai et al. 2016): not only prevented but also ameliorated

CC(=O)S[C@@H]1CC2=CC(=O)C=C[C@]2(C)[C@H]2CC[C@@]3(C)[C@@H]([C@@H]4C[C@@H]4[C@@]34CCC(=O)O4)[C@H]12 [mespirenone, 15β,16β-methylene-spironolactone]
natriuretic potency relative to spironolactone ([12]; healthy volunteers, ref Losert et al. 1986): 6 fold

C[C@]12CCC(=O)C=C1[C@@H]1C[C@@H]1[C@@H]1[C@@H]2CC[C@@]2(C)[C@H]1CC[C@@]21CCC(=O)O1 [prorenone]
effect on nuclear translocation of the aldosterone receptor (aldosterone receptor): blocks nuclear translocation

CC(=O)S[C@@H]1CC2=CC(=O)CC[C@]2(C)[C@H]2CC[C@@]3(C)[C@@H](CC[C@@]34CCC(=O)O4)[C@H]12 [spironolactone, 7α-acetylthio-17α-hydroxy-3-oxopregn-4-ene-21-carboxylic acid γ-lactone]
whole radioactivity in cardiac tissue [13]: below the detection limit | protection from aldosterone-induced cardiac necrosis [14]: protected | effect on S810L MR mutant (S810L MR mutant): paradoxically activate | cardiorenal protection [5]: only partial cardiorenal protection | tumorigenic or carcinogenic potential in chronic dog and monkey studies (dogs and monkeys): no tumorigenic or carcinogenic potential | plasma half-life [1, 17]: less than 2 h | peak absolute plasma concentration ([1]; ref Gardiner et al. 1989): […] | IC50 (human MR): […] | bound to human plasma proteins (human plasma proteins; ref Chien et al. 1976): 94% | mortality in severe heart failure [15]: mortality reduction | tumor finding, 104-week rat study (rats; 10, 30 and 100 mg/kg/day, ref Aldactone NDA 2008): significant increases in hepatocellular adenomas and benign testicular and thyroid adenomas | tumor finding, 78-week rat study (rats; male rats, 500 mg/kg, 78 weeks, ref Mayer et al. 1988): increased numbers of benign testicular adenomas | finding in chronic toxicity studies in rats (rats; rat, in vivo): tumorigenic

C[C@]12C=CC(=O)C=C1[C@@H]1C[C@@H]1[C@H]1[C@@H]3[C@@H]4C[C@@H]4[C@@]4(CCC(=O)O4)[C@@]3(C)CC[C@@H]12 [spirorenone]
affinity for rat renal cytoplasmatic MR relative to spironolactone [16]: 0.73 times | potency relative to spironolactone, urinary sodium excretion ([12]; single dose, healthy individuals, ref Seifert et al. 1982): at least 4 times | affinity for the rat androgen receptor (rat androgen receptor): practically no affinity | in vivo activity on urinary Na+/K+ ratio relative to spironolactone (urinary Na+/K+ ratio): 8.6 times | affinity for the progesterone receptor vs spironolactone (progesterone receptor): higher affinity
